From ChEMBL document CHEMBL1208705, “4-(3-Trifluoromethylphenyl)-pyrimidine-2-carbonitrile as cathepsin S inhibitors: N3, not N1 is critically important” (Bioorg Med Chem Lett, 2010)

Assay: Chemical stability of the compound assessed as half life at 1.25 mM in presence of glutathione by NMR analysis
Type: physicochemical
Settings: gsh

half-life at 1250 µM [h] | Structure (SMILES)
150 | CN1CCN(CCCOc2ccc(-c3cccc(C#N)n3)cc2C(F)(F)F)CC1
120 | CN1CCN(CCCOc2ccc(-c3ccnc(C#N)c3)cc2C(F)(F)F)CC1
